Read-outs that look alike come from different tables or passages of the source.
What was measured:
[1] = Anti-inflammatory effect (carrageenin edema of hind paw); format: in vivo, Wistar-strain male rats; conditions: Rattus norvegicus, po, read-out: anti-inflammatory effect (inhibition percentage of carrageenin edema)
Description: 2. Anti-inflammatory effect
A group of five Wistar-strain male rats (100-150 g) were orally administered with each test compound suspended in 0.5 % tragacanth-saline solution. After 30 minutes 0.5 %-1.0 % carrageenin suspended in the water for injection was injected subcutaneously to a hind paw. After 3 hours the carrageenin edema was measured by volume and the inhibition percentage was determined with respect to the results for the control animals. The inhibition percentages were shown with the notations as follows: […]

[2] = Analgetic effect (acetic acid writhing syndrome); format: in vivo, dd-strain male mice; conditions: Mus musculus, po; orally, mice, acetic acid writhing
Description: Each test compound suspended in 0.5 % tragacanth-saline solution was orally administered to dd-strain male mice (18-20 g). After one hour 0.6% acetic acid solution was intraperitoneally injected in a volume of 0.1 ml/10 g.

dd-strain male mice = conditions: 72 hours
Description: The lethal dose was estimated from the death of animals 72 hours after administration.

[3] = dose 10 mg/kg, orally, rats, 3 hours
[4] = dose 50 mg/kg, orally, rats, 3 hours

SMILES | inhibition in vivo at 10 mg/kg [1, 3] [%] | inhibition in vivo at 20 mg/kg ([1]; orally, rats, 3 hours) [%] | inhibition in vivo at 50 mg/kg [1, 4] [%] | inhibition in vivo at 100 mg/kg ([1]; orally, rats, 3 hours) [%] | ED50 [2] [mg/kg] | acute toxicity (lethal dose) (dd-strain male mice; i.p.) [mg/kg] | acute toxicity (lethal dose) (dd-strain male mice; p.o.) [mg/kg] | inhibition in vivo at 10 mg/kg ([1]; 3 h) [%] | inhibition in vivo at 50 mg/kg ([1]; 3 h) [%]
CCn1c(=O)c2cccnc2n(-c2cccc(C(F)(F)F)c2)c1=O [--C2 H5, reference compound] | 46 to 60 | 46 to 60 | > 61 | > 61 | 10 | 600 | 665 |  | 
CCCn1c(=O)c2cccnc2n(-c2cccc(Br)c2)c1=O [--CH2 CH2 CH3, reference compound] | 46 to 60 | 31 to 45 | 46 to 60 | > 61 | 20 | > 1000 |  |  | 
Cn1c(=O)c2cccnc2n(-c2cccc(Cl)c2)c1=O [--CH3, reference compound] | 31 to 45 | 46 to 60 | 46 to 60 | 46 to 60 | 7.1 | > 1000 | > 1000 |  | 
Cn1c(=O)c2cccnc2n(-c2cccc([N+](=O)[O-])c2)c1=O [Compound 2, 1-(m-nitrophenyl)-3-methylpyrido[2,3-d]pyrimidine-2,4(1H,3H)-dione] | 46 to 60 | 46 to 60 | > 61 | > 61 | 0.175 |  |  |  | 
CCn1c(=O)c2cccnc2n(-c2cccc([N+](=O)[O-])c2)c1=O [Compound 3, 1-(m-nitrophenyl)-3-ethylpyrido[2,3-d]pyrimidine-2,4(1H,3H)-dione] | > 61 | > 61 | > 61 |  | 0.113 |  |  |  | 
CCCn1c(=O)c2cccnc2n(-c2cccc([N+](=O)[O-])c2)c1=O [Compound 4] | 46 to 60 | 46 to 60 | 31 to 45 | 46 to 60 | 2.6 | 1000 | > 2000 |  | 
CC(C)n1c(=O)c2cccnc2n(-c2cccc([N+](=O)[O-])c2)c1=O [Compound 5] | 46 to 60 | 46 to 60 | 46 to 60 | > 61 | 2.15 | > 1000 |  |  | 
CC(C)Cn1c(=O)c2cccnc2n(-c2cccc([N+](=O)[O-])c2)c1=O [Compound 7] |  | 31 to 45 | 31 to 45 | 31 to 45 | 3.1 | 1000 | > 2000 |  | 
C=CCn1c(=O)c2cccnc2n(-c2cccc([N+](=O)[O-])c2)c1=O [Compound 9, 1-(m-nitrophenyl)-3-allylpyrido[2,3-d]pyrimidine-2,4(1H,3H)-dione] | > 61 | 46 to 60 | > 61 | > 61 | 2.6 |  | > 2000 |  | 
CC(C)=CCn1c(=O)c2cccnc2n(-c2cccc([N+](=O)[O-])c2)c1=O [Compound 10] | 31 to 45 | 31 to 45 | > 61 | 46 to 60 | 0.43 |  | > 2000 |  | 
C#CCn1c(=O)c2cccnc2n(-c2cccc([N+](=O)[O-])c2)c1=O [Compound 12] | 46 to 60 | 46 to 60 | 46 to 60 | > 61 | 1.15 | > 1000 | > 2000 |  | 
O=c1c2cccnc2n(-c2cccc([N+](=O)[O-])c2)c(=O)n1CCCl [Compound 14] | 46 to 60 | > 61 | 46 to 60 | > 61 | 0.19 | > 1000 | > 2000 |  | 
O=c1c2cccnc2n(-c2cccc([N+](=O)[O-])c2)c(=O)n1CCF [Compound 15] | > 61 | 46 to 60 | > 61 | 46 to 60 | ~0.01 |  | 2000 |  | 
O=c1c2cccnc2n(-c2cccc([N+](=O)[O-])c2)c(=O)n1CC(F)(F)F [Compound 16, 1-(m-nitrophenyl)-3-(2,2,2-trifluoroethyl)pyrido[2,3-d]pyrimidine-2,4(1H,3H)-dione] | 46 to 60 | > 61 | 46 to 60 | 46 to 60 | 1.28 | > 1000 | > 2000 |  | 
O=c1c2cccnc2n(-c2cccc([N+](=O)[O-])c2)c(=O)n1CCO [Compound 18, 1-(m-nitrophenyl)-3-(2-hydroxyethyl)pyrido[2,3-d] pyrimidine-2,4(1H,3H)-dione] |  |  | 31 to 45 | 31 to 45 | 0.42 | > 1000 | > 2000 |  | 
O=c1c2cccnc2n(-c2cccc([N+](=O)[O-])c2)c(=O)n1CCCO [Compound 19] | 31 to 45 | 46 to 60 | 46 to 60 | > 61 | ~1 | > 1000 | > 2000 |  | 
CC(=O)OCCn1c(=O)c2cccnc2n(-c2cccc([N+](=O)[O-])c2)c1=O [Compound 21] |  |  | 16 to 30 | 31 to 45 | 0.16 | > 1000 | 2000 |  | 
CCOCCn1c(=O)c2cccnc2n(-c2cccc([N+](=O)[O-])c2)c1=O [Compound 23] | 31 to 45 | 46 to 60 | 46 to 60 | 31 to 45 | 0.168 | > 1000 |  |  | 
O=C(O)Cn1c(=O)c2cccnc2n(-c2cccc([N+](=O)[O-])c2)c1=O [Compound 26] |  | 16 to 30 | 31 to 45 |  | 33 | > 1000 | > 2000 |  | 
O=c1c2cccnc2n(-c2cccc([N+](=O)[O-])c2)c(=O)n1CC1CC1 [O --CH2] | > 61 | > 61 | > 61 | > 61 | 0.12 |  |  |  | 
O=c1c2cccnc2n(-c2cccc([N+](=O)[O-])c2)c(=O)n1Cc1ccccc1 [O --Ch2] | 31 to 45 | 46 to 60 | 46 to 60 | > 61 | 1.7 |  |  |  | 
CN1C(=O)CN=C(c2ccccc2)c2cc(Cl)ccc21 [diazepam, reference compound] |  |  |  |  |  |  |  | < 15 | 16 to 30
CCCCC1C(=O)N(c2ccccc2)N(c2ccccc2)C1=O [phenylbutazone, reference compound] | < 15 |  | 31 to 45 |  | 290 |  |  |  | 
